# Assays:
# Assay type in all cases: in vivo
# Tetranychus urticae [1] = assay: Tetranychus urticae test; outdoor spray treatment (TETRUR) on aubergine plants; details: S. melongena
# Method: (§1) To produce an appropriate active ingredient formulation, 1 part by weight of active ingredient is mixed with the stated amounts of water to the desired concentration. Added to the spray liquor is 0.1% a.i. Crovol.
# Three aubergine plants (Solanum melongena) infested by all stages of the red spider mite (Tetranychus urticae) are sprayed with an active ingredient formulation of each desired concentration. One spray application is conducted in each case.
# (§2) After the desired time, the remaining mites per leaf are counted and calculated as the efficacy by the Abbott formula: […]
# [2] = tested on: Polyphagotarsonemus latus; assay: Polyphagotarsonemus latus test; outdoor spray treatment (HEMTLA) on bell pepper plants; details: Capsicum annuum, 100 g of ai/ha
# Method: as §1
# Three bell pepper plants (Capsicum annuum) infested by all stages of the broad mite (Polyphagotarsonemus latus) are sprayed with an active ingredient formulation of each desired concentration. A spray application with a water application rate of 500 l/Ha is conducted in each case.
# as §2
# [3] = tested on: Polyphagotarsonemus latus; assay: Polyphagotarsonemus latus test; outdoor spray treatment (HEMTLA) on chilli plants; details: C. frutescens
# Method: as §1
# Three chilli plants (Capsicum frutescens) infested by all stages of the broad mite (Polyphagotarsonemus latus) are sprayed with an active ingredient formulation of each desired concentration. A spray application with a water application rate of 458 l/Ha is conducted in each case.
# as §2
# [4] = tested on: Polyphagotarsonemus latus; assay: Polyphagotarsonemus latus test; outdoor spray treatment (HEMTLA) on aubergine plants; details: S. melongena, 100 g of ai/ha, Dat 16
# Method: as §1
# Three aubergine plants (Solanum melongena) infested by all stages of the broad mite (Polyphagotarsonemus latus) are sprayed with an active ingredient formulation of each desired concentration. A spray application with a water application rate of 500 l/Ha is conducted in each case.
# as §2
# [5] = tested on: Polyphagotarsonemus latus; assay: Polyphagotarsonemus latus test; outdoor spray treatment (HEMTLA) on bean plants; details: Ph. vulgaris, three sprays at 7-day intervals
# Method: as §1
# Three bean plants (Phaseolus vulgaris) infested by all stages of the broad mite (Polyphagotarsonemus latus) are sprayed with an active ingredient formulation of each desired concentration. Each plant is treated three times at 7-day intervals with a spray application with a water application rate of 200 l/Ha. The juncture of treatment of the plants with the first spray application X corresponds to the start point of the evaluation (Dat=0) (Dat=days after treatment). The further treatments were effected after 7 days (spray application Y), the third treatment after 14 days (spray application Z).
# as §2
# Tetranychus urticae [6] = assay: Tetranychus urticae test; outdoor spray treatment (TETRUR) on cotton plants; details: G. hirsutum
# Method: as §1
# Three cotton plants (Gossypium hirsutum) infested by all stages of the red spider mite (Tetranychus urticae) are sprayed with an active ingredient formulation of each desired concentration. One spray application is conducted in each case.
# After the desired time, the remaining mites per leaf are counted and calculated as the efficacy by the Abbott formula:
# [formula] • B=treated plots • K=untreated control plots
# [7] = 100 g of ai/ha (+Crovol 0.1%), Dat 7
# [8] = 100 g of ai/ha (+Crovol 0.1%), Dat 14
# [9] = 100 g of ai/ha (+Crovol 0.1%), Dat 21
# [10] = 75 g of ai/ha (+Crovol 0.1%), Dat 7
smiles,measurement,setting,value
Cn1nc(C(F)(F)C(F)(F)F)c(C(F)(F)F)c1C(=O)Nc1ccc(Cl)c(C(=O)NCc2ccccc2)c1 [Compound (I)],Efficacy (% Abbott),"Tetranychus urticae [1]; 100 g of ai/ha (+Crovol 0.1%), Dat 5",99 % Abbott
same,Efficacy (% Abbott),Tetranychus urticae [1]; [7],100 % Abbott
same,Efficacy (% Abbott),Tetranychus urticae [1]; [8],100 % Abbott
same,Efficacy (% Abbott),Tetranychus urticae [1]; [9],99 % Abbott
same,Efficacy (% Abbott),"Tetranychus urticae [1]; 100 g of ai/ha (+Crovol 0.1%), Dat 29",99 % Abbott
same,Efficacy (% Abbott),[2]; Dat 3,100 % Abbott
same,Efficacy (% Abbott),[2]; Dat 7,99.8 % Abbott
same,Efficacy (% Abbott),[2]; Dat 15,95.9 % Abbott
same,Efficacy (% Abbott),[2]; Dat 21,85.5 % Abbott
same,Efficacy (% Abbott),[3]; [10],63 % Abbott
same,Efficacy (% Abbott),"[3]; 75 g of ai/ha (+Crovol 0.1%), Dat 14",67 % Abbott
same,Efficacy (% Abbott),"[3]; 75 g of ai/ha (+Crovol 0.1%), Dat 21",50 % Abbott
same,Efficacy (% Abbott),[3]; [7],75 % Abbott
same,Efficacy (% Abbott),[3]; [8],75 % Abbott
same,Efficacy (% Abbott),[3]; [9],83 % Abbott
same,Efficacy (% Abbott),[4],100 % Abbott
same,Efficacy (% Abbott),"[5]; 75 g of ai/ha (+Crovol 0.1%), Dat 3",72 % Abbott
same,Efficacy (% Abbott),[5]; [10],80.7 % Abbott
same,Efficacy (% Abbott),"[5]; 75 g of ai/ha (+Crovol 0.1%), Dat 14 (Y)",81.2 % Abbott
same,Efficacy (% Abbott),"[5]; 75 g of ai/ha (+Crovol 0.1%), Dat 21 (Z)",79.2 % Abbott
same,Efficacy (% Abbott),"[5]; 75 g of ai/ha (+Crovol 0.1%), Dat 28",49.7 % Abbott
same,Efficacy (% Abbott),"[5]; 100 g of ai/ha (+Crovol 0.1%), Dat 3",81.4 % Abbott
same,Efficacy (% Abbott),"[5]; 100 g of ai/ha (+Crovol 0.1%), Dat 7 (Y)",91.5 % Abbott
same,Efficacy (% Abbott),"[5]; 100 g of ai/ha (+Crovol 0.1%), Dat 14 (Z)",90 % Abbott
same,Efficacy (% Abbott),[5]; [9],91.9 % Abbott
same,Efficacy (% Abbott),"[5]; 100 g of ai/ha (+Crovol 0.1%), Dat 28",52.7 % Abbott
same,Efficacy (% Abbott),"Tetranychus urticae [6]; 100 g of ai/ha (+Crovol 0.1%), Dat 4",100 % Abbott
same,Efficacy (% Abbott),"Tetranychus urticae [6]; 100 g of ai/ha (+Crovol 0.1%), Dat 6",100 % Abbott
"Cc1nn(C)c(/C(OC(=O)C(C)(C)C)=C(\C#N)c2ccc(C(C)(C)C)cc2)c1C [Cyenopyrafen, reference compound]",Efficacy (% Abbott),"[3]; 150 g of ai/ha, Dat 7",28 % Abbott
same,Efficacy (% Abbott),"[3]; 150 g of ai/ha, Dat 14",45 % Abbott
same,Efficacy (% Abbott),"[3]; 150 g of ai/ha, Dat 21",0 % Abbott
same,Efficacy (% Abbott),"[5]; 150 g of ai/ha, Dat 3",83.7 % Abbott
same,Efficacy (% Abbott),"[5]; 150 g of ai/ha, Dat 7 (Y)",63.8 % Abbott
same,Efficacy (% Abbott),"[5]; 150 g of ai/ha, Dat 14 (Z)",48.5 % Abbott
same,Efficacy (% Abbott),"[5]; 150 g of ai/ha, Dat 21",58.1 % Abbott
same,Efficacy (% Abbott),"[5]; 150 g of ai/ha, Dat 28",0 % Abbott
same,Efficacy (% Abbott),"Tetranychus urticae [6]; 150 g of ai/ha, Dat 4",98 % Abbott
same,Efficacy (% Abbott),"Tetranychus urticae [6]; 150 g of ai/ha, Dat 6",99 % Abbott
"CC(C)(C)c1ccc(CCOc2ncnc3ccccc23)cc1 [Fenazaquin, reference compound]",Efficacy (% Abbott),[2]; Dat 3,92.3 % Abbott
same,Efficacy (% Abbott),[2]; Dat 7,96 % Abbott
same,Efficacy (% Abbott),[2]; Dat 15,77.4 % Abbott
same,Efficacy (% Abbott),[2]; Dat 21,33.5 % Abbott
same,Efficacy (% Abbott),[4],97.9 % Abbott
"CCC(C)(C)C(=O)OC1=C(c2ccc(Cl)cc2Cl)C(=O)OC12CCCCC2 [Spirodiclofen, reference compound]",Efficacy (% Abbott),"Tetranychus urticae [1]; 48 g of ai/ha, Dat 5",63 % Abbott
same,Efficacy (% Abbott),"Tetranychus urticae [1]; 48 g of ai/ha, Dat 7",89 % Abbott
same,Efficacy (% Abbott),"Tetranychus urticae [1]; 48 g of ai/ha, Dat 14",97.5 % Abbott
same,Efficacy (% Abbott),"Tetranychus urticae [1]; 48 g of ai/ha, Dat 21",95 % Abbott
same,Efficacy (% Abbott),"Tetranychus urticae [1]; 48 g of ai/ha, Dat 29",80 % Abbott

# — patent US20150245611A1, “ACTIVE INGREDIENT FOR CONTROLLING TRUE SPIDER MITES” (BAYER CROPSCIENCE AG, priority 2014, published 2015)
